One compound from publication PMC8881610 (Nature Communications, 2022) can be followed below.

For this test, the target named is T1, GIPR (Homo sapiens, UniProt P48546).
T1 sequence (P48546 22-466): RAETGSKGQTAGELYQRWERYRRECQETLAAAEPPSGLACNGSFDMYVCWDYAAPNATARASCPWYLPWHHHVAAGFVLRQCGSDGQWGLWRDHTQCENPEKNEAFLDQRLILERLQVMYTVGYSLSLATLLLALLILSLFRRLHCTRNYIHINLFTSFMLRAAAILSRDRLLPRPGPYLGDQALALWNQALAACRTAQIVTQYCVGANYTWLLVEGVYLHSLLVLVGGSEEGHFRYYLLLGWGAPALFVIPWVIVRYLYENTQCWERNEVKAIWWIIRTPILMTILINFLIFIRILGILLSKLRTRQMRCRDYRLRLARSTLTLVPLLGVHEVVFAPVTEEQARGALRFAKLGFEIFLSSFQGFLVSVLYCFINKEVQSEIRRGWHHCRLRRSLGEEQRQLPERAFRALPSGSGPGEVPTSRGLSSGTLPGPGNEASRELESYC
As to the kind of experiment: cAMP accumulation assay (LANCE Ultra cAMP kit), GIPR WT, mutant or modified constructs. The format is cell-based. On the set-up: acylated tirzepatide to the full-length or modified; Flag; expressed in transfected cells; host or cells: HEK293T. Conditions: HEK293T. The protocol:
Human embryonic kidney 293 cells containing SV40 large T-antigen (HEK293T) were cultured in DMEM (Gibco) supplemented with 10% (v/v) fetal bovine serum (FBS, Gibco), 1 mM sodium pyruvate (Gibco) and 100 units/mL penicillin and 100 μg/mL streptomycin at 37 °C in 5% CO2. Chinese hamster ovary (CHO-K1) cells were cultured in F-12 (Gibco) containing 10% FBS, 100 units/mL penicillin and 100 μg/mL streptomycin at 37 °C in 5% CO2. For cAMP and receptor expression assays, HEK293T cells were seeded into 6-well cell culture plates at a density of 7 × 10^5 cells per well. After overnight incubation, cells were transfected with GIPR, GLP-1R or GCGR construct using Lipofectamine 2000 or Lipofectamine 3000 transfection reagent (Invitrogen). For whole-cell binding assay, CHO-K1 cells were seeded into 96-well fibronectin-treated cell culture plates at a density of 3 × 10^4 cells per well. After overnight incubation, cells were transfected with GIPR, GLP-1R or GCGR construct using Lipofectamine 2000 transfection reagent (Invitrogen). Following 24 h culturing, the transfected cells were ready for use.
A BRIL fusion protein was added at the N-terminal of the ECD with a TEV protease site and 2GSA linker between them. C-terminal 45 amino acids (Q422-C466) of the receptor were truncated. LgBiT was added at the end of helix 8 with a 15-amino acid (15AA) polypeptide linker in between, followed by a TEV protease cleavage site and an OMBP-MBP tag. […] The construct and various mutants of human GIPR were cloned into pcDNA3.1 vector for cAMP accumulation and whole-cell binding assays.
For GIPR, GLP-1R and GCGR, multi-targeting agonist stimulated cAMP accumulation was measured by a LANCE Ultra cAMP kit (PerkinElmer). After 24 h culture, the transfected cells were seeded into 384-well microtiter plates at a density of 3,000 cells per well in HBSS supplemented with 5 mM HEPES, 0.1% (w/v) BSA or 0.1% (w/v) casein and 0.5 mM 3-isobutyl-1-methylxanthine. The cells were stimulated with different concentrations of peptide agonists for 40 min at RT. Eu-cAMP tracer and ULight^TM-anti-cAMP were then diluted by cAMP detection buffer and added to the plates separately to terminate the reaction. Plates were incubated at RT for 1 h and the fluorescence intensity measured at 620 nm and […] by an EnVision multilabel plate reader (PerkinElmer).

Where two headings read alike, the source gives them in different places.

Take `CC[C@H](C)[C@H](NC(=O)[C@H](CC(C)C)NC(=O)[C@H](Cc1c[nH]c2ccccc12)NC(=O)[C@H](CCC(N)=O)NC(=O)[C@@H](NC(=O)[C@H](Cc1ccccc1)NC(=O)[C@H](C)NC(=O)[C@H](CCCCNC(=O)COCCOCCNC(=O)COCCOCCNC(=O)CC[C@H](NC(=O)CCCCCCCCCCCCCCCCCCC(=O)O)C(=O)O)NC(=O)[C@H](CCC(N)=O)NC(=O)[C@H](C)NC(=O)[C@@H](NC(=O)[C@H](CCCCN)NC(=O)[C@H](CC(=O)O)NC(=O)[C@H](CC(C)C)NC(=O)C(C)(C)NC(=O)[C@@H](NC(=O)[C@H](CO)NC(=O)[C@H](Cc1ccc(O)cc1)NC(=O)[C@H](CC(=O)O)NC(=O)[C@H](CO)NC(=O)[C@@H](NC(=O)[C@H](Cc1ccccc1)NC(=O)[C@@H](NC(=O)CNC(=O)[C@H](CCC(=O)O)NC(=O)C(C)(C)NC(=O)[C@@H](N)Cc1ccc(O)cc1)[C@@H](C)O)[C@@H](C)O)[C@@H](C)CC)[C@@H](C)CC)C(C)C)C(=O)N[C@@H](C)C(=O)NCC(=O)NCC(=O)N1CCC[C@H]1C(=O)N[C@@H](CO)C(=O)N[C@@H](CO)C(=O)NCC(=O)N[C@@H](C)C(=O)N1CCC[C@H]1C(=O)N1CCC[C@H]1C(=O)N1CCC[C@H]1C(=O)N[C@@H](CO)C(N)=O` [Tirzepatide]: the EC50 runs as follows: (GIPR WT, read-out: cAMP pEC50 (converted)) 0.0288 nM; (GIPR, n = 4, SEM, read-out: cAMP pEC50 ± S.E.M. (converted)) 0.0126 nM.
